Consider seven molecules from patent US10889569B2, “Condensed ring group azacyclobutyl triazole derivative, preparation method therefor and use thereof in medicine” (Jiangsu Hengrui Medicine Co., Ltd., priority 2016, dated 2021).

One series addresses human V2R (Homo sapiens (Human), UniProt P30518). Kind of series: Inhibition activity on human V2R (cAMP HTRF assay, HEK293/human V2R pool cells). The series is classed as cell-based. To be noted: vasopressin. On the procedure: The inhibition effect of the compounds of the present invention on the activity of human V2R protein expressed in HEK293/human V2R cells was determined by the following experimental method:
The pcDNA3.1-V2R plasmid was transferred into HEK293 cells with the Lipofectamine® 3000 transfection reagent; G418 was added on the next day, and the HEK293/human V2R pool cell lines were obtained.
HEK293/human V2R pool cells were dissociated with the cell dissociation solution (enzyme-free), thereby dissociating the cells from the cell culture dish into individual cells. Then the cell solution was blown well, and centrifuged to remove the supernatant. The cells were resuspended in the test buffer 1 (1×HBSS+20 mM HEPES+0.1% BSA) and counted. The cell density was adjusted to 1250 cells/5 μl, i.e., 2.5*10^5/ml.
The compounds were formulated into a series of concentrations of 20 mM, 6.67 mM, 2.22 mM, 0.74 mM, 0.25 mM, 0.08 mM, 27.4 μM, 9.14 μM, 3.05 μM, 1.02 μM, 0.34 μM and 0 μM (DMSO) with pure DMSO. The compounds were then diluted into a 4-fold working concentration solution with the test buffer 2 (test buffer 1+1 mM IBMX).
Agonist: 460 μM vasopressin was used as the mother liquor, which was formulated at 2 μM with DMSO, and then diluted to 0.5 nM with the test buffer 2.
Standards: The first point was 20 μl of a stock solution (2848 nM), which was diluted successively to a total of eleven concentrations in a 4-fold concentration gradient with the test buffer 1 from the second point.
1. The well-mixed cells were added to a 384-well plate (5 μl/well) without changing the tip.
2. The test compounds and positive compound formulated were added (2.5 μl/well), and the tips were changed.
3. The plate was centrifuged at 1000 rpm for 1 min, shaken for 30 sec to mix well, and incubated at room temperature for 30 min.
4. The standard curve wells were added with the test buffer 2 (5 μl/well).
5. The formulated agonist was added (2.5 μl/well), and the tips were changed; the plate was centrifuged at 1000 rpm for 1 min, shaken for 30 sec to mix well, and incubated at room temperature for 30 min.
6. cAMP-d2 (a component in the cAMP dynamic 2 kit) and Anti-cAMP-Eu-Cryptate (a component in the cAMP dynamic 2 kit) were formulated in the dark, which were then mixed well with cAMP lysate (a component in the cAMP dynamic 2 kit) in a ratio of 1:4. Each well was added with the formulated cAMP-d2 solution (5 μl/well), followed by addition of Anti-cAMP-Eu-Cryptate (5 μl/well). The plate was shaken for 30 sec to mix well, and incubated in the dark at room temperature for 1 h.
The HTRF Signals were Read by the PheraStar Multi-Function Microplate Reader.
The data in this test was processed using the data processing software Graphpad Prism.
The inhibition activity of the compounds of the present invention on human V2R was determined by the above test, and the IC50 values obtained are shown in Table 4.

A further series addresses human V1aR (Homo sapiens (Human), UniProt P37288). Kind of series: Inhibition activity on human V1aR (Fluo-4 calcium assay, HEK293/human V1aR stably transfected cells). The series is classed as cell-based. To be noted: vasopressin 3 nM. On the procedure:
The inhibition effect of the compounds of the present invention on the activity of human V1 aR protein expressed in HEK293/human V1aR stably transfected cells was determined by the following experimental method:
The pcDNA3.1-V1aR plasmid was transferred into HEK293 cells with the Lipofectamine® 3000 transfection reagent; G418 was added on the next day to screen, and monoclonal cell lines were selected.
(§1) HEK293/human V1aR stably transfected cells were inoculated in a 96-well plate with an inoculation density of 25,000 cells/well one day in advance. On the next day, a loading buffer containing Fluo-4 dye was formulated using the reagents in the Fluo-4 NW calcium assay kit, and the culture medium was then removed; 100 μl of the loading buffer containing Fluo-4 dye were added to each well, and the plate was incubated at 37° C. for 30 minutes. After that, the plate was moved to room temperature and equilibrated for 10 minutes. The compounds were formulated at 10^6, 10^5, 10^4, 10^3, 10^2 and 10^1 nM. 1 μl of the compounds in each concentration was added to each well, and the plate was incubated at room temperature for 10 minutes. 50 μl of vasopressin polypeptide (3 nM) were automatically added by the machine, and the values were immediately detected at 494/516 nM by the flexstation 3 microplate reader. IC50 values of the compounds were calculated by Graphpad prism software using fluorescence signals corresponding to different concentrations.
The inhibition activity of the compounds of the present invention on human V1aR was determined by the above test, and the obtained IC50 values are shown in Table 2.

For another series, the target named is human V1bR (Homo sapiens, UniProt P47901). Kind of series: Inhibition activity on human V1bR (Fluo-4 calcium assay, HEK293/human V1bR pool cells). The series is classed as cell-based. Particulars: vasopressin 3 nM. On the procedure:
The inhibition effect of the compounds of the present invention on the activity of human V1bR protein expressed in HEK293/human V1bR cells was determined by the following experimental method:
The pcDNA3.1-V1bR plasmid was transferred into HEK293 cells with the Lipofectamine® 3000 transfection reagent; G418 was added on the next day, and the HEK293/human V1bR pool cell lines were obtained.
as §1, with “HEK293/human V1bR pool” for “HEK293/human V1aR stably transfected”, “formulated into” for “formulated at”
The inhibition activity of the compounds of the present invention on human V1bR was determined by the above test, and the obtained IC50 values are shown in Table 3.

The next series addresses human OTR (Homo sapiens, UniProt P30559). Kind of series: Inhibition activity on human OTR (Fluo-4 calcium assay, HEK293/human OTR stably transfected cells). It is filed as cell-based. Particulars: oxytocin 3 nM. How it is done:
The inhibition effect of the compounds of the present invention on the activity of human OTR protein expressed in HEK293/human OTR stably transfected cells was determined by the following experimental method:
The pcDNA3.1-hOTR plasmid was transferred into HEK293 cells with the Lipofectamine® 3000 transfection reagent; G418 was added on the next day to screen, and monoclonal cell lines were selected.
as §1, with “OTR” for “V1aR”, “oxytocin” for “vasopressin”
The inhibition activity of the compounds of the present invention on human OTR was determined by the above test, and the obtained IC50 values are shown in Table 1.

A short description of series [1]: Pharmacokinetics assay in rats after intragastrical administration. The series is classed as in vivo, SD rats. To be noted: Sprague-Dawley, rat, plasma, po, 30 mg/kg, intragastric, male rats; for Vd/F: read-out: Apparent distribution volume Vz/F; for AUC: read-out: Area under curve AUC; for CL/F: read-out: Clearance CLz/F; for half-life: read-out: Half-life T1/2 (converted); for Cmax: read-out: Plasma concentration Cmax. How it is done:
Male SD rats were used as test animals. The drug concentration in plasma at different time points was determined by LC/MS/MS method after intragastrical administration of the compounds of Examples 2, 17, 34, 37, 38, 39 and 43 to rats. The pharmacokinetic behavior of the compounds of the present invention was studied and evaluated in rats.
Twenty-one healthy adult male Sprague-Dawley (SD) rats were purchased from Shanghai Jiesijie Laboratory Animal Co., LTD, with Certificate No.: SCXK (Shanghai) 2013-0006, and equally divided into 7 groups (3 rats per group).
A certain amount of the test compound was weighed, and added with 2.5% by volume of DMSO and 97.5% by volume of 10% solutol HS-15 to formulate a […] colorless, clear and transparent solution.
After an overnight fast, SD rats were administered intragastrically the test compounds at an administration dosage of 30.0 mg/kg and an administration volume of 10.0 mL/kg.
The rats were intragastrically administered the compounds of Examples 2, 17, 34, 37, 38, 39 and 43. 0.2 mL of blood was taken from the orbital sinus before administration and at 0.5, 1.0, 2.0, 4.0, 6.0, 8.0, 11.0 and 24.0 hours after administration. The samples were stored in heparinized tubes, and centrifuged for 10 minutes at 4° C. at 3500 rpm to separate the plasma. The plasma samples were stored at −20° C. The rats were fed 2 hours after administration.
The content of the test compounds in the plasma of rats after intragastrical administration of the test compounds at different concentrations was determined: 50 μL of rat plasma at each time after administration was taken, added with 50 μL of the internal standard solution of camptothecin (100 ng/mL) and 150 μL of acetonitrile, vortex-mixed for 5 minutes, and centrifuged for 10 minutes (4000 rpm). 3 μL of the supernatant was taken from the plasma samples for LC/MS/MS analysis.

Sequence of human V2R (P30518 whole entry): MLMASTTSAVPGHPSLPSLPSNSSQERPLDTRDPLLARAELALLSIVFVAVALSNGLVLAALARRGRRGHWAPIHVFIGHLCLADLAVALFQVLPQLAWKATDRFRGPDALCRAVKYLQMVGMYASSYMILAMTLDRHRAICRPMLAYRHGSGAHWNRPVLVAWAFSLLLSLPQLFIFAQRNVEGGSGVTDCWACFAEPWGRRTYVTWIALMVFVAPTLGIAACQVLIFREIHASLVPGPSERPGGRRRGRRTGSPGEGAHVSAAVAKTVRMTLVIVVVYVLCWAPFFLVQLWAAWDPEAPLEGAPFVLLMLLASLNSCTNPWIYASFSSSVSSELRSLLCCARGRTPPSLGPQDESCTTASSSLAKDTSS
Sequence of human V1aR (P37288 whole entry): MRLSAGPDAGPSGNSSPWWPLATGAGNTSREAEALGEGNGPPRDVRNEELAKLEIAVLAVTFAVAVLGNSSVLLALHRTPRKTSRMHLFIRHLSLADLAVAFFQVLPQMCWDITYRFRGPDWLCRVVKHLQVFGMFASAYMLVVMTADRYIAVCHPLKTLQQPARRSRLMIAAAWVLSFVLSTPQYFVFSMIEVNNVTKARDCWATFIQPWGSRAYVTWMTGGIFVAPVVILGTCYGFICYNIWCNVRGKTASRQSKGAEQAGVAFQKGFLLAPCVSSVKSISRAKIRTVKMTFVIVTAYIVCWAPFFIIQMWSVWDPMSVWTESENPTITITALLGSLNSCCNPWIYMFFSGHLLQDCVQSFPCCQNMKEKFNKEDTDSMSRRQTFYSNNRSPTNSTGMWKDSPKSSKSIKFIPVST

`COCc1nnc(N2CC(c3ccnc4cc(F)ccc34)C2)n1-c1ccc(OC)nc1` [Example 1, 7-Fluoro-4-(1-(5-(methoxymethyl)-4-(6-methoxypyridin-3-yl)-4H-1,2,4-triazol-3-yl)azetidin-3-yl)quinoline]: the IC50 against human V2R is greater than 100 µM; on human V1aR, 18.1 µM; at human V1bR, 448 µM.
On to `COCc1nnc(N2CC(c3coc4cc(F)ccc34)C2)n1-c1ccc(OC)nc1` [Example 11, 5-(3-(3-(6-Fluorobenzofuran-3-yl)azetidin-1-yl)-5-(methoxymethyl)-4H-1,2,4-triazol-4-yl)-2-methoxypyridine], for which the IC50 on human OTR worked out at 0.221 µM; against human V2R it was 25.7 µM; on human V1aR, 2.3 µM.
For the molecule `COCc1nnc(N2CC(N3C(=O)COc4cc(F)ccc43)C2)n1-c1ccc(OC)nc1` [Example 18, 7-Fluoro-4-(1-(5-(methoxymethyl)-4-(6-methoxypyridin-3-yl)-4H-1,2,4-triazol-3-yl)azetidin-3-yl)-2H-benzo[b][1,4]oxazin-3(4H)-one], the results for the IC50 against human V2R, on human V1aR and at human V1bR were 59.4 µM, 59.5 µM and 59.5 µM, respectively.
In turn, `COCc1nnc(N2CC(N3CCc4cc(F)ccc43)C2)n1-c1ccc(OC)nc1` [Example 23, 5-Fluoro-1-(1-(5-(methoxymethyl)-4-(6-methoxypyridin-3-yl)-4H-1,2,4-triazol-3-yl)azetidin-3-yl)indoline] had an IC50 against human V2R of 52 µM.
Regarding `COc1ccc(-n2c(C)nnc2N2CC(N3CCOc4cc(F)ccc43)C2)cn1` [Example 32, 7-Fluoro-4-(1-(4-(6-methoxypyridin-3-yl)-5-methyl-4H-1,2,4-triazol-3-yl)azetidin-3-yl)-3,4-dihydro-2H-benzo[b][1,4]oxazine], the half-maximal inhibitory concentration (IC50) was greater than 100 µM on human V2R, 23 µM on human V1aR and 77.2 µM on human V1bR.
Turning to `COc1ccc(-n2c(N3CC(N4CCCc5cc(F)ccc54)C3)nnc2C(F)(F)F)cn1` [Example 39, 6-Fluoro-1-(1-(4-(6-methoxypyridin-3-yl)-5-(trifluoromethyl)-4H-1,2,4-triazol-3-yl)azetidin-3-yl)-1,2,3,4-tetrahydroquinoline], in series [1], the Vd/F turned out to be 35 ± 3.01 L/kg, the AUC is 3830 ± 83.7 ng·h/mL, the CL/F came out at 131 ± 2.85 mL/min/kg and the half-life is 3.09 ± 0.199 h. Further, in series [1], the Cmax is 1200 ± 68.5 ng/mL. The MRT in series [1] (read-out: Residence time MRT) was 3.61 ± 0.022 h. Besides, the IC50 at human OTR was 0.006 µM. Further, on human V1aR, the IC50 was 2 µM.
For the molecule `COc1ccc(-n2c(N3CC(N4CCOc5cc(F)ccc54)C3)nnc2C(F)(F)F)cn1` [Example 43, 7-Fluoro-4-(1-(4-(6-methoxypyridin-3-yl)-5-(trifluoromethyl)-4H-1,2,4-triazol-3-yl)azetidin-3-yl)-3,4-dihydro-2H-benzo[b][1,4]oxazine], in series [1], the Vd/F is 31.1 ± 19.3 L/kg, the area under the curve (AUC) amounted to 5560 ± 2330 ng·h/mL, the CL/F came out at 3.81 ± 0.12 mL/min/kg and the half-life is 3.31 ± 0.23 h. Further, the Cmax in series [1] was 1580 ± 601 ng/mL. Moreover, at human OTR, the IC50 is 0.015 µM. Moreover, the IC50 at human V1aR amounted to 7.9 µM.
